According to ChEMBL document CHEMBL1134086, “Discovery of potent and selective phenylalanine derived CCR3 receptor antagonists. Part 2” (Bioorg Med Chem Lett, 2001):

organism: Homo sapiens; assay: Ability to block the eotaxin induced intracellular calcium mobilization in primary human eosinophils was determined; format: functional

Row | IC50 [nM] | Compound
1 | 600 | O=C(N[C@@H](Cc1ccc([N+](=O)[O-])cc1)C1=NCCO1)c1cccc2ccccc12
2 | 38 | COC(=O)[C@H](Cc1ccc([N+](=O)[O-])cc1)NC(=O)c1cccc2ccccc12
3 | 15 | C[C@H](NC(=O)[C@H](Cc1ccc(Cl)cc1)NC(=O)c1cccc2ccccc12)C(=O)Nc1ccccc1

molecular target: T1, C-C chemokine receptor type 3 (Homo sapiens, UniProt P51677); assay: Antagonist activity against C-C chemokine receptor type 3; format: functional
T1 sequence (P51677 whole entry): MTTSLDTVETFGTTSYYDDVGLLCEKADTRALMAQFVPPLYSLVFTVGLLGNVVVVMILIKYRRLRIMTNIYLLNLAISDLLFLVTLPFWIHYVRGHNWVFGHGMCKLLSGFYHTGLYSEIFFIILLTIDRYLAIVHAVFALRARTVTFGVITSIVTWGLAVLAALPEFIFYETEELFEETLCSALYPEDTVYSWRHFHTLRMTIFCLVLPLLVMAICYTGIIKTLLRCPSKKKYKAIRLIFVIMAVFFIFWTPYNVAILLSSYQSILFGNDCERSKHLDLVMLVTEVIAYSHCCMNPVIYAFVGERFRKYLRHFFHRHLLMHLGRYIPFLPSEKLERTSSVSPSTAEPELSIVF

Row | Compound | IC50 [nM]
4 | C[C@H](NC(=O)[C@H](Cc1ccncc1)NC(=O)c1cccc2ccccc12)C(=O)Nc1ccc(-c2ccccc2)cc1 | 600
5 | Cc1ccc(C(=O)N[C@@H](Cc2ccc(Cl)cc2)C(=O)N[C@@H](C)C(=O)Nc2ccc(Cl)cc2)c(C)c1 | 45
6 | COc1ccc(NC(=O)[C@H](C)NC(=O)[C@H](Cc2cscn2)NC(=O)c2cccc3ccccc23)cc1 | 500
7 | O=C(N[C@@H](Cc1ccc([N+](=O)[O-])cc1)c1nccs1)c1cccc2ccccc12 | 32000
8 | O=C(N[C@@H](Cc1ccc([N+](=O)[O-])cc1)c1nc(C(=O)N2CCc3ccccc3C2)cs1)c1cccc2ccccc12 | 12500
9 | O=C(Nc1ccccc1)c1csc([C@H](Cc2ccc([N+](=O)[O-])cc2)NC(=O)c2cccc3ccccc23)n1 | 7700
10 | COc1ccc(NC(=O)[C@H](C)NC(=O)[C@H](Cc2ccncc2)NC(=O)c2cccc3ccccc23)cc1 | > 1220
11 | O=C(N[C@@H](Cc1ccc([N+](=O)[O-])cc1)C(=O)N[C@H](C(=O)Nc1ccccc1)c1ccccc1)c1cccc2ccccc12 | 116
12 | C[C@H](NC(=O)[C@H](Cc1ccc(Cl)cc1)NC(=O)c1cccc2ccccc12)C(=O)Nc1cccnc1 | 27
13 | O=C(N[C@@H](Cc1ccc([N+](=O)[O-])cc1)C1=NCCO1)c1cccc2ccccc12 | 563
14 | CCOC(=O)C1COC([C@H](Cc2ccc([N+](=O)[O-])cc2)NC(=O)c2cccc3ccccc23)=N1 (some centres not stated) | 213
15 | COc1ccccc1NC(=O)[C@H](C)NC(=O)[C@H](Cc1ccc(C#N)cc1)NC(=O)c1cccc2ccccc12 | 125
16 | C[C@H](NC(=O)[C@H](Cc1cscn1)NC(=O)c1cccc2ccccc12)C(=O)Nc1ccc(Cl)cc1 | 800
17 | COc1ccc(NC(=O)[C@H](C)NC(=O)[C@H](CC2CCCCC2)NC(=O)c2cccc3ccccc23)cc1 | 700
18 | COc1ccc(NC(=O)[C@H](C)NC(=O)[C@H](Cc2ccc(Cl)cc2)NC(=O)c2cccc3ccccc23)cc1 | 45
19 | COc1ccc(C[C@H](NC(=O)c2cccc3ccccc23)C(=O)N[C@@H](C)C(=O)Nc2ccccc2OC)cc1 | 15
20 | COc1ccc(C[C@H](NC(=O)c2cccc3ccccc23)C(=O)N[C@@H](C)C(=O)Nc2ccc(C#N)cc2)cc1 | 250
21 | CCNC(=O)c1csc([C@H](Cc2ccc([N+](=O)[O-])cc2)NC(=O)c2cccc3ccccc23)n1 | 18000
22 | COc1ccc(NC(=O)[C@H](C)NC(=O)[C@H](Cc2ccc(C#N)cc2)NC(=O)c2cccc3ccccc23)cc1 | 90
23 | C[C@H](NC(=O)[C@H](Cc1ccc(Cl)cc1)NC(=O)c1cccc2ccccc12)C(=O)Nc1ccccc1 | 5
24 | O=C(N[C@@H](Cc1ccc([N+](=O)[O-])cc1)c1cnco1)c1cccc2ccccc12 (racemic) | 22500
25 | O=C(N[C@@H](Cc1ccc([N+](=O)[O-])cc1)c1nnco1)c1cccc2ccccc12 (racemic) | > 33000
26 | O=C(N[C@@H](Cc1ccc([N+](=O)[O-])cc1)c1ncco1)c1cccc2ccccc12 (racemic) | > 33000
27 | CCn1ccnc1[C@H](Cc1ccc([N+](=O)[O-])cc1)NC(=O)c1cccc2ccccc12 (racemic; form 1) | > 33000
28 | CCn1ccnc1[C@H](Cc1ccc([N+](=O)[O-])cc1)NC(=O)c1cccc2ccccc12 (racemic; form 2) | > 33000
29 | CCn1ccnc1[C@H](Cc1ccc([N+](=O)[O-])cc1)NC(=O)c1cccc2ccccc12 (racemic; form 3) | 17000

Results, then the compound that gave them:

Row | IC50 [nM] | Compound
30 | 350 | C=C(NC(=O)[C@H](Cc1ccc([N+](=O)[O-])cc1)NC(=O)c1cccc2ccccc12)C(=O)OCC
31 | 20 | C[C@@H](NC(=O)[C@H](Cc1ccc([N+](=O)[O-])cc1)NC(=O)c1cccc2ccccc12)C(=O)OC(C)(C)C
32 | 190 | C[C@H](NC(=O)[C@H](Cc1ccc([N+](=O)[O-])cc1)NC(=O)c1cccc2ccccc12)C(=O)Nc1ccccc1
33 | 3 | CCOC(=O)[C@@H](C)NC(=O)[C@H](Cc1ccc([N+](=O)[O-])cc1)NC(=O)c1cccc2ccccc12
34 | 400 | O=C(CNC(=O)[C@H](Cc1ccc([N+](=O)[O-])cc1)NC(=O)c1cccc2ccccc12)Nc1ccccc1
35 | 666 | CCNC(=O)C(C)NC(=O)[C@H](Cc1ccc([N+](=O)[O-])cc1)NC(=O)c1cccc2ccccc12 (some centres not stated)
36 | 65 | C[C@@H](C(=O)Nc1ccccc1)N(C)C(=O)[C@H](Cc1ccc([N+](=O)[O-])cc1)NC(=O)c1cccc2ccccc12
37 | 300 | CC(NC(=O)[C@H](Cc1ccc([N+](=O)[O-])cc1)NC(=O)c1cccc2ccccc12)C(=O)NCc1ccccc1 (some centres not stated)
38 | 1130 | CC(NC(=O)[C@H](Cc1ccc([N+](=O)[O-])cc1)NC(=O)c1cccc2ccccc12)C(=O)N1CCCC1 (some centres not stated)
39 | 663 | CCOC(=O)c1csc([C@H](Cc2ccc([N+](=O)[O-])cc2)NC(=O)c2cccc3ccccc23)n1
40 | 383 | CCOC(=O)[C@H](C)NC(=O)[C@H](Cc1ccc([N+](=O)[O-])cc1)NC(=O)c1cccc2ccccc12
41 | 500 | CCOC(=O)c1coc([C@H](Cc2ccc([N+](=O)[O-])cc2)NC(=O)c2cccc3ccccc23)n1
42 | 600 | C[C@H](NC(=O)[C@H](Cc1ccc([N+](=O)[O-])cc1)NC(=O)c1cccc2ccccc12)C(=O)N(C)c1ccccc1
